Series [1] relates to living cells. The following applies: dye bonded to the cell; inventor's earlier meeting article (1990); cited from earlier work.
In series [2] the test system is living cells. The series is described as follows: Fluorescence dye bonded to living cells: does the cell stay alive. It is filed as cell-based. An excerpt: As the said fluorescence dye, the above DAPI can be employed. Although the DAPI itself is known, the use for the observation of the cell division while keeping the cells alive is unknown. The present inventors have investigated such fluorescence dye as Hoechst 33258, acridine orange and acridine yellow other than the DAPI.

The subject of series [3] is human leutecyte strain cell (RPMI-8402). Put plainly: Extinction effect of compatible administration of l-OHP and a compatible agent on tumor cells (compatible efficiency OE). It is filed as cell-based. The following applies: for Compatible Effects of l-OHP and Compatible Agent, Simultaneous Administration: both added day 1. The essentials: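 RPMI-8402 cells (10^6/ml, 15% fetal bovine serum) got l-OHP (5 or 1 μg/ml) with a partner agent at high or low dose (e.g. cisplatin 1 or 0.5, 5-FU 10 or 5 μg/ml; irinotecan fixed at 10 μg/ml) on the same day or staggered days 1–4 in either order. Cell kill was corrected for the untreated control. A combination index of 85–115% was scored additive, >115% synergistic.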

Series [4] concerns human leutecyte strain cells (RPMI-8402). The series is described as follows: Rapid inspection of carcinostatic substances by counting divided cells with DAPI. The following applies: for number of the divided cells compared with the control (FIG. 15): 0.05 μg/ml VCR, 0.05 μg/ml VDS, 20 μg/ml MST-16, with 1 μg/ml DAPI; for division phases of the divided cells (microscope observation): ratio of the divided cells increased after the initiation of the cultivation, no anaphase or telophase cells observed. It is filed as cell-based. The protocol: After over a certain number of cancer cells are prepared by cultivation, a carcinostatic substance is added to the cancer cells. The number of the cells under the cell division at the respective measuring times is counted while continuing the cultivation. […] Accordingly, the effectiveness of the carcinostatic substance can be inspected by counting the number of the cells under the cell division among a certain number (for example, one thousand) of cells several times, comparing the said number with that of the former counting or the previous counting thereof and grasping the progress of the cell division by means of the increase or the decrease of the above comparison. If the DAPI is added with the carcinostatic substance during this procedure, the accurate counting of the number of the divided cells can be performed because the cells under the any phase of the cell division can be recognized. When the number of the divided cells decreases as a result of the comparison between the measurement values, it is judged that the multiplication of the cancer cells is depressed, or the function of the carcinostatic substance is performed. When, on the other hand, the number of the divided cells increases compared with the control, a certain function of the carcinostatic substance is judged to be performed. […] To the respective cultivation liquids were added, together with 1 μg/ml of the DAPI, (1) the control (no addition of the carcinostatic substance), (2) 5 μg/ml of CPT (camptotecin), (3) 10 μg/ml of CPT-11 ([…]), (4) 0.06 μg/ml of ADR (adriamycin), (5) 0.05 μg/ml of DNR (daunomycin), (6) 1 μ/ml of etoposide, (7) 20 μg/ml of MST-16 (sopsoxane), (8) 1 μg/ml of […]), (9) μg/ml of Act-D (actinomycin D), (10) 0.1 μg/ml of mitoxantrone. (11) 20 μg/ml of 5-FU, (12) 10 μg/ml of Ara-C (cytosinarabinoside) (13) 50 μg/ml of hydroxyurea, (14) 2 μg/ml of Aphidicolin, (15) 10 μg/ml of MTX (mesotroxate), (16) 0.05 μg/ml of VCR (vincristin), (17) 0.05 μg/ml of […]). (5) μg/ml of cisplatin, (18) 10 μg/ml of bleomycin, (20)10 μg/ml of MMC (mitomycin C) and (21) 5 μg/ml of cyclophospamide (endoxane). The samples were sampled from the respective cultivation liquids after one hour, […], 24 hours and then every 24 hour from the initiation of the cultivation. The samples were evaluated in accordance with the procedures of the preceding Examples. The results are shown in a graph of FIG. 15.

Setting [5] is: larger dosage of compatible agent (μg/ml: cisplatin 1, 5-FU 10, irinotecane 10, adriamycin 0.05, vincristin 0.05, vindecin 0.05, etoposide 1, bleomycin 10, mitoxantrone 0.1, mitomycine 1), l-OHP 1 μg/ml (5 μg/ml with irinotecane) added day 1.
The mark [6] stands for this setting: larger dosage of compatible agent (μg/ml: cisplatin 1, 5-FU 10, irinotecane 10, adriamycin 0.05, vincristin 0.05, vindecin 0.05, etoposide 1, bleomycin 10, mitoxantrone 0.1, mitomycine 1), l-OHP 1 μg/ml (5 μg/ml with irinotecane).
Setting [7] is: larger dosage of compatible agent added day 1 (μg/ml: cisplatin 1, 5-FU 10, irinotecane 10, adriamycin 0.05, vincristin 0.05, vindecin 0.05, etoposide 1, bleomycin 10, mitoxantrone 0.1, mitomycine 1), l-OHP 1 μg/ml (5 μg/ml with irinotecane).
The mark [8] stands for this setting: smaller dosage of compatible agent (μg/ml: cisplatin 0.5, 5-FU 5, irinotecane 10, adriamycin 0.01, vincristin 0.01, vindecin 0.01, etoposide 0.5, bleomycin 1, mitoxantrone 0.05, mitomycine 0.5), l-OHP 1 μg/ml added day 1.
Setting [9] is: smaller dosage of compatible agent (μg/ml: cisplatin 0.5, 5-FU 5, irinotecane 10, adriamycin 0.01, vincristin 0.01, vindecin 0.01, etoposide 0.5, bleomycin 1, mitoxantrone 0.05, mitomycine 0.5), l-OHP 1 μg/ml.
Setting [10] is: smaller dosage of compatible agent added day 1 (μg/ml: cisplatin 0.5, 5-FU 5, irinotecane 10, adriamycin 0.01, vincristin 0.01, vindecin 0.01, etoposide 0.5, bleomycin 1, mitoxantrone 0.05, mitomycine 0.5), l-OHP 1 μg/ml.

Structures are written as SMILES. Entries after “also recorded” stand apart in the source; their conditions may differ. Like-named read-outs stand apart in the source and are kept apart here.

With `Cl.Cl.N=C(N)c1ccc(-c2cc3ccc(C(=N)N)cc3[nH]2)cc1` [DAPI, 4′,6-diamidino-2-phenylindole•2HCl], the “effect of fluorescence dye on living cells” value in series [1] was “without extinguishing the cells”.

As for `CN1CCN(c2ccc3[nH]c(-c4ccc5[nH]c(-c6ccc(O)cc6)nc5c4)nc3c2)CC1` [Hoechst 33258], the “toxicity of fluorescence dye to the cell” value in series [2] (dye bonded to living cells) is “toxicity is too strong to keep the cell alive”.

Regarding `CN(C)c1ccc2cc3ccc(N(C)C)cc3nc2c1` [acridine orange], the “toxicity of fluorescence dye to the cell” value in series [2] is “toxicity is too strong to keep the cell alive”.

For `Cc1cc2cc3cc(C)c(N)cc3nc2cc1N` [acridine yellow], the “toxicity of fluorescence dye to the cell” value in series [2] is “toxicity is too strong to keep the cell alive”.

For `CC[C@]1(O)C[C@H]2CN(CCc3c([nH]c4ccccc34)[C@@](C(=O)OC)(c3cc4c(cc3OC)N(C=O)[C@H]3[C@@](O)(C(=O)OC)[C@H](OC(C)=O)[C@]5(CC)C=CCN6CC[C@]43[C@@H]65)C2)C1` [vincristin], the “compatible administration effect with l-OHP, summary in words” value in series [3] is “the additive effect at best; also recorded: no synergistic effects can be obtained in all the combinations and the additive effects can be obtained in most combinations”. In series [3] (setting [5]), the “Compatible Effects of l-OHP and Compatible Agent, Time Lag Administration, Addition Administration of Compatible Agent day 2” value (from here on “Compatible Effects … of Compatible Agent day 2”) is “Δ (Δ: Below Additive Effect)”; the “Compatible Effects of l-OHP and Compatible Agent, Time Lag Administration, Addition Administration of Compatible Agent day 3” value (“Compatible Effects … of Compatible Agent day 3” below) is “Δ (Δ: Below Additive Effect)”; the “Compatible Effects of l-OHP and Compatible Agent, Time Lag Administration, Addition Administration of Compatible Agent day 4” value (shortened to “Compatible Effects … of Compatible Agent day 4”) is “◯ (◯: Additive Effect)”. The “Compatible Effects of l-OHP and Compatible Agent, Simultaneous Administration” value (“Compatible Effects … Simultaneous Administration” for short) in series [3] (setting [6]) is reported as “Δ (Δ: Below Additive Effect)”. In series [3] (setting [7]), the “Compatible Effects of l-OHP and Compatible Agent, Time Lag Administration, Addition Administration of l-OHP day 2” value (“Compatible Effects … of l-OHP day 2” for short) is given as “◯ (◯: Additive Effect)”; the “Compatible Effects of l-OHP and Compatible Agent, Time Lag Administration, Addition Administration of l-OHP day 3” value (“Compatible Effects … of l-OHP day 3” for short) is given as “Δ (Δ: Below Additive Effect)”; the “Compatible Effects of l-OHP and Compatible Agent, Time Lag Administration, Addition Administration of l-OHP day 4” value (“Compatible Effects … of l-OHP day 4” for short) is given as “◯ (◯: Additive Effect)”. Further, in series [3] (setting [8]), the “Compatible Effects … of Compatible Agent day 2” value is listed as “◯ (◯: Additive Effect)”; the “Compatible Effects … of Compatible Agent day 3” value is reported as “Δ (Δ: Below Additive Effect)”; the “Compatible Effects … of Compatible Agent day 4” value was “◯ (◯: Additive Effect)”. Further, the “Compatible Effects … Simultaneous Administration” value in series [3] (setting [9]) was “Δ (Δ: Below Additive Effect)”. In series [3] (setting [10]), the “Compatible Effects … of l-OHP day 2” value is “◯ (◯: Additive Effect)”; the “Compatible Effects … of l-OHP day 3” value is on record as “◯ (◯: Additive Effect)”; the “Compatible Effects … of l-OHP day 4” value is listed as “◯ (◯: Additive Effect)”. In series [4], the “number of the divided cells compared with the control (FIG. 15)” value is “remarkable increases of the numbers of the divided cells”; the “division phases of the divided cells (microscope observation)” value is “the division prophase and the division metaphase”.

Regarding `CC[C@]1(O)C[C@@H]2CN(CCc3c([nH]c4ccccc34)[C@@](C(=O)OC)(c3cc4c(cc3OC)N(C)[C@H]3[C@@](O)(C(N)=O)[C@H](O)[C@]5(CC)C=CCN6CC[C@]43[C@@H]65)C2)C1` [vindecin], the “compatible administration effect with l-OHP, summary in words” value in series [3] is “the additive effect at best; also recorded: no synergistic effects can be obtained in all the 14 combinations and the additive effects can be obtained in only three combinations”. Moreover, in series [3] (setting [5]), the “Compatible Effects … of Compatible Agent day 2” value is given as “Δ (Δ: Below Additive Effect)”; the “Compatible Effects … of Compatible Agent day 3” value is on record as “Δ (Δ: Below Additive Effect)”; the “Compatible Effects … of Compatible Agent day 4” value is recorded as “Δ (Δ: Below Additive Effect)”. In series [3] (setting [6]), the “Compatible Effects … Simultaneous Administration” value is reported as “◯ (◯: Additive Effect)”. In series [3] (setting [7]), the “Compatible Effects … of l-OHP day 2” value is on record as “◯ (◯: Additive Effect)”; the “Compatible Effects … of l-OHP day 3” value is given as “Δ (Δ: Below Additive Effect)”; the “Compatible Effects … of l-OHP day 4” value was “Δ (Δ: Below Additive Effect)”. In series [3] (setting [8]), the “Compatible Effects … of Compatible Agent day 2” value is “Δ (Δ: Below Additive Effect)”; the “Compatible Effects … of Compatible Agent day 3” value is listed as “Δ (Δ: Below Additive Effect)”; the “Compatible Effects … of Compatible Agent day 4” value was “◯ (◯: Additive Effect)”. Further, the “Compatible Effects … Simultaneous Administration” value in series [3] (setting [9]) is recorded as “Δ (Δ: Below Additive Effect)”. In series [3] (setting [10]), the “Compatible Effects … of l-OHP day 2” value is reported as “Δ (Δ: Below Additive Effect)”; the “Compatible Effects … of l-OHP day 3” value is “Δ (Δ: Below Additive Effect)”; the “Compatible Effects … of l-OHP day 4” value was “Δ (Δ: Below Additive Effect)”. Moreover, in series [4], the “number of the divided cells compared with the control (FIG. 15)” value is on record as “remarkable increases of the numbers of the divided cells”; the “division phases of the divided cells (microscope observation)” value was “the division prophase and the division metaphase”.
